Measurements as given in patent publication US12576048B2, “Anti-cancer activity of adamantane derivatives” (The Regents of the University of California, priority 2018, dated 2026).

Tests used:
[1] = test system: CAL-27 squamous cell carcinoma cell line; experiment: MTT proliferation assay, CAL-27; type: cell-based, human
[2] = test system: MOSCC3 squamous cell carcinoma; experiment: MTT proliferation assay, MOSCC3 (Example 2); type: cell-based, murine; details: 48 hours; FIG. 16C
[3] = test system: AT-84 E7 squamous cell carcinoma; experiment: MTT proliferation assay, AT-84-E7 (Example 2); type: cell-based, murine; details: 48 hours; FIG. 16B
[4] = test system: B16-OVA melanoma tumor line; experiment: MHC Class I expression in B16-OVA by flow cytometry (Example 2); type: cell-based, murine; details: 24 hours at indicated concentrations; FIG. 15
B16-OVA melanoma = experiment: MTT proliferation assay, B16-OVA (Example 2); type: cell-based, murine; details: 48 hours; FIG. 16A
4T1 tumor cells = experiment: Tumor volume in mice inoculated with 4T1 tumor cells; type: in vivo; details: 10 mg/kg IP once daily, 7 injections starting on day 6; FIG. 1C
Description: (§1) FIGS. 1A-1E are plots showing the effects of rimantadine or PEGylated rimantidine on tumor volume in different cancer models.
(§2) Mice were injected subcutaneously with 1.0 to 5.0×10^5 AT-84-E7, 1.5×10^5 B16-OVA, or 5.0×10^5 4T1 cells resuspended in 100 μl of PBS in the right flank. For orthotopic models, 1.0×10^5 AT-84-E7 or 1.0×10^6 4MOSC1 in 30 μl of PBS were injected into tongue. Tumor diameter was measured every 2 to 3 days with an electronic caliper and reported as volume using the formula; tumor volume (mm3)=(length×width2)/2. Once tumors become palpable, mice were treated with 200 μg of anti-PD-L1 antibody (BioXcell, West Lebanon, NH) via IP injection every 3 days for a total of three or four injections per mouse, or mice were treated with 10 mg/kg body weight of rimantadine (Sigma, St. Louis, MO) via IP injection daily for 7 days. For adoptive transfer experiments, first, single-cell suspension of spleen from OT-1 mice were cultured in media containing 10 ng/ml OVA SIINFEKL peptide (InvivoGen, San Diego, CA) and 2 ng/ml recombinant IL-2 (PeproTech, Rocky Hill, NJ) […], and then 4.0×10^6 cells were intravenously injected into B16-OVA-bearing mice.

4MOSC1 tumor cells = experiment: Tumor volume in mice inoculated with 4MOSC1 tumor cells (orthotopic HNSCC model); type: in vivo; details: 10 mg/kg IP once daily, 7 injections once tumors palpable; FIG. 1D
Description: as §1, §2

T cells = experiment: T-cell proliferation assay using CFSE-labeled T-cells; type: cell-based; details: FIGS. 10A and 10B
Source text: FIGS. 10A and 10B are plots showing T-cell proliferation assay using CFSE-labeled T-cells simulated to proliferate in the presence or absence of rimantadine.

[5] = test system: AT-84-E7 and B16-OVA models; experiment: Cell proliferation assay (MTT), FIG. 9; type: cell-based; details: 48 hours
Description: FIG. 9 has plots showing the cell proliferation assay (MTT), which was analyzed 48 hours following treatment with rimantadine.
(§3) Cell cycle progression was analyzed on the basis of BrdU incorporation following […] cell staining with BrdU-APC and 7-AAD using BD Pharmingen BrdU Flow Kit. (BD, Franklin Lakes, NJ) according to the manufacture's protocol. Cells were analyzed using flow cytometry. Cell proliferation was assessed by using MTT [3-(4,5-dimethylthiazol-2-yl)-2,5-diphenyltetrazolium bromide]. First, cells were seeded in 96-well plate and cultured for 2-3 days. Next, culture media was replaced with fresh media containing 0.5 mg/ml of MTT (Sigma) and the plates were incubated for 4 hours at 37° C. Then, purple formazan crystals were dissolved in lysis buffer (4 mM HCl and 0.1% NP-40 in isopropanol) and the absorbance was recorded on a TECAN infinite M200 microplate reader (Tecan, Männedorf, Switzerland) at a wavelength of 570 nm with absorbance at 650 nm as reference.

[6] = test system: murine and human cell lines engineered to express HPV16 E5; type: cell-based; details: 24 hours; FIG. 14
[7] = test system: CAL-33 squamous cell carcinoma cell line; experiment: MTT proliferation assay, CAL-33; type: cell-based, human; details: rimantadine alone; FIG. 13
Description: (§4) FIG. 13 has plots showing the effect of rimantadine on human HNSCC lines as labeled. BrdU cell cycle analysis (upper) and MTT proliferation assay (lower).
as §3

B16-OVA tumor cells = experiment: Tumor volume in mice inoculated with B16-OVA tumor cells; type: in vivo; details: 10 mg/kg IP once daily, 7 injections starting on day 10; FIG. 1B, 1E
Description: as §1, §2

[8] = test system: CAL-27 squamous cell carcinoma cell line; experiment: BrdU cell cycle analysis, CAL-27; type: cell-based, human; details: rimantadine alone; FIG. 13
Description: as §4, §3

B16-OVA = experiment: BrdU cell cycle analysis, B16-OVA; type: cell-based, murine; details: 24 hours; FIG. 8
Description: (§5) FIG. 8 has plots showing the BrdU cell cycle analyzed for 24 hours following treatment with rimantadine,
as §3

[9] = test system: SCC-47 squamous cell carcinoma cell line; experiment: MTT proliferation assay, SCC-47; type: cell-based, human; details: rimantadine alone; FIG. 13
Description: as §4, §3

Tau = Tau mRNA expression by RT-qPCR; type: cell-based; details: 24 hours; FIGS. 12A and B
Description: FIGS. 12A and 12B are plots showing Tau mRNA expression, which was analyzed 24 hours following treatment with rimantadine.
(§6) Total RNA were extracted using TRIzol Reagent (Invitrogen) and reverse transcribed with qScript cDNA Synthesis Kit (Quanta BioSciences, Beverly, MA) according to the manufacturer's instructions. Quantitative PCR analysis were conducted by using KAPA SYBR […] FAST (KAPA Biosystems, Wilmington, MA) on the 7900HT Fast Real-Time PCR System (Applied Biosystems, Foster City, CA).

RAW264.7 cell line = details: 48 hours after treatment
Description: FIGS. 7A and 7B are plots showing cell surface expression of MHC I (H-2Kd) and MHC II (I-A/I-E), respectively, on rimantadine-treated RAW264.7 48 hours after treatment. Data are shown as mean±S.E.M. Statistics were done using an unpaired t-test.
After obtaining single-cell suspensions, each sample was incubated with an Fc blocking reagent (anti-CD16/32 antibody; BioLegend, San Diego, CA). Following Fc blockade, cells were stained with fluorescent-labeled antibodies [BioLegend, BD Bioscience (San Jose, CA), or eBiosciences (Thermo Fisher Scientific, Waltham, MA)]. LIVE/DEAD Fixable Cell Staining Kit (Invitrogen) was used for viability staining. For intracellular staining, cells were processed with Foxp3/Transcription Factor Fixation/Permeabilization Concentrate and Diluent (Invitrogen). Cells were analyzed using a BD FACS Aria II or LSR II flow cytometer (BD). Data was analyzed on FlowJo (FlowJo, LLC, Ashland, OR). For each antibody, the following clones were used: CD45.2 (104), CD3e (145-2C11), CD4 (RM4-5), CD8a (5H10), CD25 (3C7, PC61), CD44 (IM7), CD62L (MEL-14), IFN-γ (XMG1.2), Foxp3 (MF23), H-2Kb (AF6-88.5), H-2Kk (36-7-5), H-2Kd (SF1-1.1), H-2Kb/[sequence] (eBio25-D1.16), I-A/I-E (2G9), CD49b (DX5), CD11b (M1/70), FLAG (L5), CD31 (MEC13.3), NK-T/NK Cell Antigen (U5A2-13), CD102 (3C4 (MIC2/4)), CD62P (RMP-1), CD105 (MJ7/18), CD106 (429 (MVCAM.A)), and CD162 (2PH1).

AT-84-E7 = experiment: BrdU cell cycle analysis, AT-84-E7; type: cell-based, murine; details: 24 hours; FIG. 8
Description: as §5, §3

[10] = test system: AT-84-E7 tumors which didn't express E5; experiment: Tumor volume in mice inoculated with AT-84-E7 cells not expressing E5 (empty vector); type: in vivo; details: rimantadine for one week; FIG. 2A vs 2B
Description: FIGS. 2A and 2B are plots showing the effects of rimantadine on tumor.
as §2

[11] = test system: CAL-33 squamous cell carcinoma cell line; experiment: BrdU cell cycle analysis, CAL-33; type: cell-based, human; details: rimantadine alone; FIG. 13
Description: as §4, §3

[12] = test system: B16-OVA cells co-cultured with B3Z cells; experiment: B3Z activation assay; type: cell-based; details: 100 μM rimantadine 24 hours, then 24 hours co-culture; FIG. 5
Description: FIG. 5 is a plot showing B3Z activation after rimantadine treatment (48 hours).
B16-OVA cells were seeded into 96-well plate and treated with 100 μM rimantadine for 24 hours, prior to addition of B3Z cells. After 24 hours of co-culture, medium was removed and 100 μl of lysis buffer [0.155 mM chlorophenol red β-D-galactopyranoside (CPRG) (Roche), 0.125% Nonidet P-40 Alternative (EMD-Calbiochem), and 9 mM MgCl2 (Sigma) in PBS] was added. After incubation for 4 hours at 37° C., the absorbance at 570 nm was determined on a TECAN infinite M200 microplate reader.

Stathmin = Stathmin mRNA expression by RT-qPCR; type: cell-based; details: 24 hours
Description: FIGS. 11A and 11B are plots showing Stathmin mRNA expression, which was analyzed 24 hours following treatment with rimantadine in AT-84-E7 cells and B16-OVA cells, respectively.
as §6

[13] = test system: SCC-47 squamous cell carcinoma cell line; experiment: BrdU cell cycle analysis, SCC-47; type: cell-based, human; details: rimantadine alone; FIG. 13
Description: as §4, §3

[14] = test system: multiple cell lines (AT-84-E7, B16-OVA, 4T1, B16, MC38); details: rimantadine 100 μM, 48 hours or 24 hours; FIGS. 3A-3E, 4A-D
Description: FIGS. 3A-3E are plots showing MHC I expression or antigen-presentation (H-2Kb/[sequence]) as analyzed by flow cytometry after rimantadine treatment (100 μM, 48 hours). FIG. 3A is a plot showing MHC I expression for the AT-84-E7 model. FIG. 3B is a plot showing MHC I expression for the B16-OVA model. FIG. 3C is a plot showing antigen-presentation (H-2Kb/[sequence]) for the B16-OVA model. FIG. 3D is a plot showing MHC I expression for the 4T1 model.
FIGS. 4A-4D are plots showing MHC expression in tumor cells. FIGS. 4A and 4B show MHC I expression analyzed by flow cytometry 48 hours after rimantadine treatment for B16 and MC38 cells, respectively. FIGS. 4C and 4D are plots showing expression of MHC I and antigen presentation (H-2Kb/[sequence]), respectively, 24 hours after rimantadine treatment in B16-OVA cells.
After obtaining single-cell suspensions, each sample was incubated with an Fc blocking reagent (anti-CD16/32 antibody; BioLegend, San Diego, CA). Following Fc blockade, cells were stained with fluorescent-labeled antibodies [BioLegend, BD Bioscience (San Jose, CA), or eBiosciences (Thermo Fisher Scientific, Waltham, MA)]. LIVE/DEAD Fixable Cell Staining Kit (Invitrogen) was used for viability staining. […] Cells were analyzed using a BD FACS Aria II or LSR II flow cytometer (BD). Data was analyzed on FlowJo (FlowJo, LLC, Ashland, OR). […]

AT84-E7/E5 tumor cells = experiment: Tumor volume in mice inoculated with AT84-E7/E5 tumor cells; type: in vivo; details: 10 mg/kg IP once daily, 7 injections starting on day 8; FIG. 1A
Description: as §1, §2

For `CC12CC3CC(C)(C1)CC(N)(C3)C2` [memantine], the “proliferation (MTT)” value ([1]; 48 hours, FIG. 17A) was “inhibited proliferation”, the “proliferation (MTT)” value ([1]; 72 hours, FIG. 17B) was “inhibited proliferation” and the “proliferation (MTT)” value [2] was “inhibit proliferation”. For the same compound, the “proliferation (MTT)” value [3] was “inhibit proliferation”, the “MHC Class I Expression” value [4] was “upregulated” and the “proliferation (MTT)” value (B16-OVA melanoma) was “inhibit proliferation”.

For `CC(N)C12CC3CC(CC(C3)C1)C2` (centres unmarked) [rimantadine], the “tumor sizes compared to control groups” value (4T1 tumor cells) was “statistically significant decreases in tumor sizes”, the “anti-tumor activity (tumor volume)” value (4MOSC1 tumor cells) was “significant anti-tumor activity” and the “proliferation of T cells” value (T cells) was “no significant effect”. The “cell proliferation (MTT)” value [5] was “Suppression of cell proliferation”, the “cell cycle arrest (BrdU)” value [6] was “induced cell cycle arrest” and the “proliferation (MTT)” value ([1]; 48 hours, FIG. 17A) was “inhibited proliferation”. For the same compound, the “proliferation (MTT)” value ([1]; 72 hours, FIG. 17B) was “inhibited proliferation”, the “proliferation (MTT)” value ([1]; rimantadine alone, FIG. 13) was “decreased proliferation” and the “proliferation (MTT)” value [2] was “inhibit proliferation”. For the same compound, the “proliferation (MTT)” value [7] was “decreased proliferation”, the “tumor sizes compared to control groups” value (B16-OVA tumor cells) was “statistically significant decreases in tumor sizes” and the “cell cycle arrest (BrdU)” value [8] was “Significant cell cycle arrest”. The “proliferation (MTT)” value [3] was “inhibit proliferation”, the “cell surface expression of MHC I” value (E5-positive AT-84-E7) was “restored” and the “GO/G1 cell cycle arrest” value (B16-OVA) was “significant increases”. For the same compound, the S phase (B16-OVA) was “significant decreases”, the “proliferation (MTT)” value [9] was “decreased proliferation” and the “Tau mRNA expression” value (Tau) was “Decreases”. The “MHC Class I Expression” value [4] was “upregulated”, the “MHC class I surface expression” value (RAW264.7 cell line; H-2Kd, FIG. 7A) was “significant increases” and the “MHC class II surface expression” value (RAW264.7 cell line; I-A/I-E, FIG. 7B) was “significant increases”. The “GO/G1 cell cycle arrest” value (AT-84-E7) was “significant increases”, the S phase (AT-84-E7) was “significant decreases” and the “proliferation (MTT)” value (B16-OVA melanoma) was “inhibit proliferation”. For the same compound, the “anti-tumor effect (tumor volume) relative to E5-expressing tumors” value [10] was “decreased”, the “cell cycle arrest (BrdU)” value [11] was “Significant cell cycle arrest” and the “increase in recognition of model tumor antigen by B3Z cells” value [12] was 3 fold. For the same compound, the “Stathmin mRNA expression” value (Stathmin; AT-84-E7 cells, FIG. 11A) was “significant decreases”, the “Stathmin mRNA expression” value (Stathmin; B16-OVA cells, FIG. 11B) was “significant decreases” and the “cell cycle arrest (BrdU)” value [13] was “Significant cell cycle arrest”. The “surface expression of MHC” value [14] was “Significant increases” and the “tumor size compared to control groups” value (AT84-E7/E5 tumor cells) was “statistically significant decreases in tumor size”.
